What was measured:
[1] = test system: NCI-H322M; assay: Growth inhibition of human NCI-H322M cells incubated for 48 hrs by sulforhodamine B assay; type: functional, cell-based
[2] = test system: SF-268; assay: Growth inhibition of human SF268 cells incubated for 48 hrs by sulforhodamine B assay; type: functional, cell-based; details: SF-268, 48 h
[3] = test system: IGROV-1; assay: Growth inhibition of human IGROV1 cells incubated for 48 hrs by sulforhodamine B assay; type: functional, cell-based; details: IGROV-1, 48 h
[4] = test system: OVCAR-3; assay: Growth inhibition of human OVCAR3 cells incubated for 48 hrs by sulforhodamine B assay; type: functional, cell-based; details: OVCAR-3, 48 h
[5] = test system: RXF 393; assay: Growth inhibition of human RXF393 cells incubated for 48 hrs by sulforhodamine B assay; type: functional, cell-based; details: RXF 393, 48 h
[6] = test system: PC-3; assay: Growth inhibition of human PC3 cells incubated for 48 hrs by sulforhodamine B assay; type: functional, cell-based; details: PC-3, 48 h
[7] = test system: SR; assay: Growth inhibition of human SR cells assessed as cell growth at 0.01 uM incubated for 48 hrs by sulforhodamine B assay relative to control; type: functional; details: read-out: Activity
[8] = test system: KM12; assay: Growth inhibition of human KM12 cells assessed as cell growth at 0.01 uM incubated for 48 hrs by sulforhodamine B assay relative to control; type: functional; details: KM12, 48 h, read-out: Activity
[9] = test system: SNB-19; assay: Growth inhibition of human SNB19 cells assessed as cell growth at 0.01 uM incubated for 48 hrs by sulforhodamine B assay relative to control; type: functional; details: SNB-19, 48 h, read-out: Activity
[10] = test system: SN12C; assay: Growth inhibition of human SN12C cells assessed as cell growth at 0.01 uM incubated for 48 hrs by sulforhodamine B assay relative to control; type: functional; details: read-out: Activity
[11] = test system: SF-268; assay: Growth inhibition of human SF268 cells assessed as cell growth at 0.1 uM incubated for 48 hrs by sulforhodamine B assay relative to control; type: functional; details: SF-268, 48 h, read-out: Activity
[12] = test system: SNB-19; assay: Growth inhibition of human SNB19 cells assessed as cell growth at 0.1 uM incubated for 48 hrs by sulforhodamine B assay relative to control; type: functional; details: SNB-19, 48 h, read-out: Activity
[13] = test system: U-251; assay: Growth inhibition of human U251 cells assessed as cell growth at 0.1 uM incubated for 48 hrs by sulforhodamine B assay relative to control; type: functional; details: U-251, 48 h, read-out: Activity
[14] = test system: OVCAR-5; assay: Growth inhibition of human OVCAR5 cells assessed as cell growth at 0.1 uM incubated for 48 hrs by sulforhodamine B assay relative to control; type: functional; details: OVCAR-5, 48 h, read-out: Activity
[15] = test system: RXF 393; assay: Growth inhibition of human RXF393 cells assessed as cell growth at 0.1 uM incubated for 48 hrs by sulforhodamine B assay relative to control; type: functional; details: RXF 393, 48 h, read-out: Activity
[16] = test system: NCI-H23; assay: Growth inhibition of human NCI-H23 cells assessed as cell growth at 1 uM incubated for 48 hrs by sulforhodamine B assay relative to control; type: functional; details: NCI-H23, 48 h, read-out: Activity
[17] = test system: SF-268; assay: Growth inhibition of human SF268 cells assessed as cell growth at 1 uM incubated for 48 hrs by sulforhodamine B assay relative to control; type: functional; details: SF-268, 48 h, read-out: Activity
[18] = test system: SF-539; assay: Growth inhibition of human SF539 cells assessed as cell growth at 1 uM incubated for 48 hrs by sulforhodamine B assay relative to control; type: functional; details: SF-539, 48 h, read-out: Activity
[19] = test system: SNB-75; assay: Growth inhibition of human SNB75 cells assessed as cell growth at 1 uM incubated for 48 hrs by sulforhodamine B assay relative to control; type: functional; details: SNB-75, 48 h, read-out: Activity
[20] = test system: Malme-3M; assay: Growth inhibition of human MALME-3M cells assessed as cell growth at 1 uM incubated for 48 hrs by sulforhodamine B assay relative to control; type: functional; details: read-out: Activity
[21] = test system: UACC-62; assay: Growth inhibition of human UACC62 cells assessed as cell growth at 1 uM incubated for 48 hrs by sulforhodamine B assay relative to control; type: functional; details: UACC-62, 48 h, read-out: Activity
[22] = test system: SN12C; assay: Growth inhibition of human SN12C cells assessed as cell growth at 1 uM incubated for 48 hrs by sulforhodamine B assay relative to control; type: functional; details: read-out: Activity
[23] = test system: UO-31; assay: Growth inhibition of human UO31 cells assessed as cell growth at 1 uM incubated for 48 hrs by sulforhodamine B assay relative to control; type: functional; details: UO-31, 48 h, read-out: Activity
[24] = test system: MCF7; assay: Growth inhibition of human MCF7 cells assessed as cell growth at 1 uM incubated for 48 hrs by sulforhodamine B assay relative to control; type: functional; details: MCF7, 48 h, read-out: Activity
[25] = test system: Hs-578T; assay: Growth inhibition of human Hs578T cells assessed as cell growth at 1 uM incubated for 48 hrs by sulforhodamine B assay relative to control; type: functional; details: read-out: Activity
[26] = test system: NCI-H226; assay: Growth inhibition of human NCI-H226 cells assessed as cell growth at 100 uM incubated for 48 hrs by sulforhodamine B assay relative to control; type: functional; details: NCI-H226, 48 h, read-out: Activity
[27] = test system: HCC 2998; assay: Growth inhibition of human HCC2998 cells assessed as cell growth at 100 uM incubated for 48 hrs by sulforhodamine B assay relative to control; type: functional; details: HCC 2998, 48 h, read-out: Activity
[28] = test system: IGROV-1; assay: Growth inhibition of human IGROV1 cells assessed as cell growth at 100 uM incubated for 48 hrs by sulforhodamine B assay relative to control; type: functional; details: IGROV-1, 48 h, read-out: Activity
[29] = test system: OVCAR-3; assay: Growth inhibition of human OVCAR3 cells assessed as cell growth at 100 uM incubated for 48 hrs by sulforhodamine B assay relative to control; type: functional; details: OVCAR-3, 48 h, read-out: Activity
[30] = test system: OVCAR-5; assay: Growth inhibition of human OVCAR5 cells assessed as cell growth at 100 uM incubated for 48 hrs by sulforhodamine B assay relative to control; type: functional; details: OVCAR-5, 48 h, read-out: Activity
[31] = test system: NCI/ADR-RES; assay: Growth inhibition of human NCI/ADR-RES cells assessed as cell growth at 100 uM incubated for 48 hrs by sulforhodamine B assay relative to control; type: functional; details: read-out: Activity
[32] = read-out: LC50 (the source's name)
[33] = read-out: pLC50 (the source's name) (converted)

COc1cc(Cl)cc(-c2nn(-c3cccc(NC(=O)Nc4ccc(Cl)c(Cl)c4)c3)cc2-c2ccncc2)c1
GI50 ([1]; read-out: GI50): 3.26 µM
CC50 [1, 32]: > 100 µM
TGI ([1]; read-out: TGI): > 100 µM
GI50 ([1]; read-out: pGI50 (converted)): 3.31 µM
CC50 [1, 33]: > 100 µM
TGI ([1]; read-out: pTGI (converted)): > 100 µM
GI50 ([2]; read-out: GI50): 3.27 µM
CC50 [2, 32]: > 100 µM
TGI ([2]; read-out: TGI): > 100 µM
GI50 ([2]; read-out: pGI50 (converted)): 3.24 µM
CC50 [2, 33]: > 100 µM
TGI ([2]; read-out: pTGI (converted)): > 100 µM
GI50 ([3]; read-out: GI50): 4.36 µM
CC50 [3, 32]: > 100 µM
TGI ([3]; read-out: TGI): > 100 µM
GI50 ([3]; read-out: pGI50 (converted)): 4.37 µM
CC50 [3, 33]: > 100 µM
TGI ([3]; read-out: pTGI (converted)): > 100 µM
IC50 [4]: 1.56 µM
GI50 ([4]; read-out: GI50): 1.56 µM
CC50 [4, 32]: > 100 µM
TGI ([4]; read-out: TGI): 29.4 µM
GI50 ([4]; read-out: pGI50 (converted)): 1.55 µM
CC50 [4, 33]: > 100 µM
TGI ([4]; read-out: pTGI (converted)): 29.5 µM
LC50 [5]: > 100 µM
GI50 ([5]; read-out: GI50): 1.96 µM
TGI ([5]; read-out: TGI): 72.5 µM
GI50 ([5]; read-out: pGI50 (converted)): 1.95 µM
TGI ([5]; read-out: pTGI (converted)): 7.24 µM
IC50 [6]: 1.13 µM
GI50 ([6]; read-out: GI50): 1.13 µM
CC50 [6, 32]: > 100 µM
TGI ([6]; read-out: TGI): 52.5 µM
GI50 ([6]; read-out: pGI50 (converted)): 1.12 µM
CC50 [6, 33]: > 100 µM
TGI ([6]; read-out: pTGI (converted)): 5.25 µM
growth at 0.01 µM [7]: 94%
growth at 0.01 µM [8]: 96%
growth at 0.01 µM [9]: 92%
growth at 0.01 µM [10]: 97%
growth at 0.1 µM [11]: 95%
growth at 0.1 µM [12]: 90%
growth at 0.1 µM [13]: 92%
growth at 0.1 µM [14]: 59%
growth at 0.1 µM [15]: 101%
growth at 1 µM [16]: 89%
growth at 1 µM [17]: 88%
growth at 1 µM [18]: 82%
growth at 1 µM [19]: 71%
growth at 1 µM [20]: 77%
growth at 1 µM [21]: 75%
growth at 1 µM [22]: 87%
growth at 1 µM [23]: 88%
growth at 1 µM [24]: 83%
growth at 1 µM [25]: 99%
growth at 100 µM [26]: 2%
growth at 100 µM [27]: -7%
growth at 100 µM [28]: 8%
growth at 100 µM [29]: -4%
growth at 100 µM [30]: 9%
growth at 100 µM [31]: -3%
